The results in this text go back to patent US6514709B1, “High throughput screening by measurement of intracellular calcium levels” (Merck & Co., Inc., priority 2000, dated 2003).

Common to all, as to format: cell-based
Experiment [1] deals with T1, rat VR1 capsaicin receptor (Rattus norvegicus, UniProt O35433).
T1 construct: expressed in transfected cells
As to the kind of experiment: Fluo-3 fluorescence calcium response in VR1 cells (VIPR). Here is the method: Parental HEK293 cell lines expressing apoaequorin (293AEQ17 cells) were used to develop stable clonal cell lines expressing the rat VR1 capsaicin receptor (Caterina, M. J., Schumacher, M. A., Tominaga, M., Rosen, T. A., Levine, J. D., and Julius, D. (1997) The capsaicin receptor: a heat-activated ion channel in the pain pathway. Nature 389, 816-824). The VR1 293AEQ17 were maintained on growth media containing DMEM (GIBCOBRL, high glucose, with L-glutamine, with 110 mg/L sodium pyruvate, with pyridoxine HCl), 25 mM HEPES (GIBCOBRL, 1M stock), 0.5 mg/mL geneticin (GIBCOBRL, 50 mg/mL stock), 1 μg/mL puromycin (CLONTECH), and 10% fetal bovine serum (GEMINI BIO-PRODUCTS, heat inactivated) at 37° C., 10% CO^2.
Cells were grown to 80-95% confluence in tissue culture flasks (T-225, CORNING) and harvested by trypsinization (Trypsin/EDTA, GIBCOBRL). Cells were dispensed (about 1×10^5 cells/0.2 ml/well) into 96-well black clear-bottom BIOCOAT poly-D-lysine plates (BECTON DICKENSON, Bedford, Mass.) in growth media and incubated overnight at 37° C. in a humidified incubator at 10% CO^2. Cells were washed once with 200 μls of enriched PBS (Dulbecco's PBS (GIBCOBRL #14040-117), 10 mM HEPES, 2 g/L glucose; pH 7.2) and then incubated with 100 μl of 5 μM fluo-3-AM (MOLECULAR PROBES #F1241) with or without of 1,2-bis(o-aminophenoxy)ethane-N,N,N′,N′-tetraacetic acid tetra(acetoxymethyl) ester (BAPTA-AM, MOLECULAR PROBES #B 1205) in enriched PBS containing 0.02% pluronic F-127 (MOLECULAR PROBES #P-3000) for 30-70 minutes. Wells were washed two times with 100 μl of enriched-PBS, and then 100 μl enriched-PBS with or without antagonist was added for 15-30 minutes prior to assay on the AURORA fluorescence plate reader VIPR (ex. 480 nm, em. 535 nm). […] The calcium response was initiated by addition of 100 μl of the indicated concentration of capsaicin (SIGMA #M2028). The VIPR instrument was used to add agonist (in 100 μl enriched-PBS) after recording a 10 sec. baseline and the fluorescence was measured for up to 300 sec.
Changes in intracellular calcium were measured using the fluo-3 dye and detecting the kinetics of the response after addition of the VR1 agonist, capsaicin (0.5 uM) to cells expressing VR1 using a VIPR fluorescence plate reader (FIGS. 5 & 6A).

Experiment [2] has as its target T1, rat VR1 capsaicin receptor. As to the kind of experiment: Manual luminescence measurement in VR1 cells, read 2 minutes after agonist. Here is the method:
Parental HEK293 cell lines expressing apoaequorin (293AEQ17 cells) were used to develop stable clonal cell lines expressing the rat VR1 capsaicin receptor.
Cells were grown to 80-95% confluence in tissue culture flasks (T-225, Corning) and harvested by trypsinization (Trypsin/EDTA, GIBCOBRL). Cells were dispensed (about 1×10^5 cells/0.2 ml/well) into 96-well white clear-bottom BIOCOAT poly-D-lysine plates (BECTON DICKENSON, Bedford, Mass.) in growth media and incubated overnight at 37° C. in a humidified incubator at 10% CO^2.

The target of experiment [3] is T2, human growth hormone secretagogue receptor type 1a (hGHSR1A) (Homo sapiens, UniProt Q92847).
T2 construct: expressed in transfected cells
T2 sequence (Q92847 whole entry): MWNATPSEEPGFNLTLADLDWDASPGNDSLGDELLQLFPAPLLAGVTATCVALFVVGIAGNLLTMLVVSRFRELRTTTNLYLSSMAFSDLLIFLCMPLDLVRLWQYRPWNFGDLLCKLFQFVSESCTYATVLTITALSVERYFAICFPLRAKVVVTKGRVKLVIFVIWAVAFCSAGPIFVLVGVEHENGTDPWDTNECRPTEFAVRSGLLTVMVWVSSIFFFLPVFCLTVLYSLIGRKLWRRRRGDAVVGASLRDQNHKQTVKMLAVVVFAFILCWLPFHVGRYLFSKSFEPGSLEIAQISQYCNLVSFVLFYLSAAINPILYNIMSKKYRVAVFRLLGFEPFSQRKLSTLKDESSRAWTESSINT
Put plainly: Manual luminescence measurement in hGHSR1a cells, read 2 minutes after agonist. Conditions: 2 minutes after 100 nM ghrelin, with BAPTA. Here is the method: Parental HEK293 cell lines expressing apoaequorin (293AEQ17 cells) were used to develop stable clonal cell lines expressing the human growth hormone secretagogue receptor type 1a (hGHSR1A).
Cells were charged with the aequorin substrate, coelenterazine h (MOLECULAR PROBES, #C-6780), by removing the growth media and incubating the cells with 75 μl of charge buffer (DMEM GIBCOBRL #12320-032; 0.1% FBS GEMINI BIO-PRODUCTS, Inc. #100-107;5 μM coelenterazine h; 30 μM reduced glutathione) for 2 hours at 37° C., 10% CO^2. […] The cells were then washed and loaded with 100 μl of enriched-PBS with or without the indicated antagonist. […] The WALLAC MICROBETA JET was used to measure 10 sec of luminescence after a delay of 2 minutes.
J. Med Chem. 43 4370-4376). […] After a lapse of two minutes, the plates were read using the WALLAC MICROBETA JET luminometer. […] These complex dose-response curves were observed both in the presence and absence of BAPTA. Yet overall, the addition of BAPTA increased the luminescence such that a 6-fold signal over background could be measured 2 minutes after stimulation with agonist.

For experiment [4], the target named is T1, rat VR1 capsaicin receptor. Put plainly: Aequorin luminescence in VR1 cells (WALLAC MICROBETA JET). Conditions: no BAPTA. On the procedure:
Parental HEK293 cell lines expressing apoaequorin (293AEQ17 cells) were used to develop stable clonal cell lines expressing the rat VR1 capsaicin receptor. The VR1 293AEQ17 were maintained on growth media containing DMEM (GIBCOBRL, high glucose, with L-glutamine, with 110 mg/L sodium pyruvate, with pyridoxine HCl), 25 mM HEPES (GIBCOBRL, 1M stock), 0.5 mg/mL geneticin (GIBCOBRL, 50 mg/mL stock), 1 μg/mL puromycin (CLONTECH), and 10% fetal bovine serum (GEMINI BIO-PRODUCTS, heat inactivated) at 37° C., 10% CO^2.
Cells were grown to 80-95% confluence in tissue culture flasks (T-225, Corning) and harvested by trypsinization (Trypsin/EDTA, GIBCOBRL). Cells were dispensed (about 1×10^5 cells/0.2 ml/well) into 96-well white clear-bottom BIOCOAT poly-D-lysine plates (BECTON DICKENSON, Bedford, Mass.) in growth media and incubated overnight at 37° C. in a humidified incubator at 10% CO^2. Cells were charged with the aequorin substrate, coelenterazine h (MOLECULAR PROBES, #C-6780), by removing the growth media and incubating the cells with 75 μl of charge buffer (DMEM GIBCOBRL #12320-032; 0.1% FBS GEMINI BIO-PRODUCTS, Inc. #100-107;5 μM coelenterazine h; 30 μM reduced glutathione) for 2 hours at 37° C., 10% CO^2. The charge buffer was then removed and the cells were washed twice with 100 μl of enriched-PBS (pH 7.2) and then incubated with 100 μl of enriched-PBS supplemented with 0-30 μM BAPTA-AM for 30-120 min at 37° C., 10% CO^2. The cells were then washed and loaded with […] of enriched-PBS with or without the indicated antagonist. The calcium response was initiated by addition of 100 μl of the indicated concentration of capsaicin (SIGMA #M2028) to the wells by a WALLAC MICROBETA JET. In order to obtain more consistent kinetics, the Jet was set to simultaneously read only six wells per determination.
For these experiments, the kinetics of the flash luminescence were followed using a WALLAC MICROBETA JET luminometer that injects reagent and records light emission from six wells of a 96-well plate simultaneously.

Setting [5] is: 0.5 uM capsaicin, absence of BAPTA.

T1 sequence (O35433 whole entry): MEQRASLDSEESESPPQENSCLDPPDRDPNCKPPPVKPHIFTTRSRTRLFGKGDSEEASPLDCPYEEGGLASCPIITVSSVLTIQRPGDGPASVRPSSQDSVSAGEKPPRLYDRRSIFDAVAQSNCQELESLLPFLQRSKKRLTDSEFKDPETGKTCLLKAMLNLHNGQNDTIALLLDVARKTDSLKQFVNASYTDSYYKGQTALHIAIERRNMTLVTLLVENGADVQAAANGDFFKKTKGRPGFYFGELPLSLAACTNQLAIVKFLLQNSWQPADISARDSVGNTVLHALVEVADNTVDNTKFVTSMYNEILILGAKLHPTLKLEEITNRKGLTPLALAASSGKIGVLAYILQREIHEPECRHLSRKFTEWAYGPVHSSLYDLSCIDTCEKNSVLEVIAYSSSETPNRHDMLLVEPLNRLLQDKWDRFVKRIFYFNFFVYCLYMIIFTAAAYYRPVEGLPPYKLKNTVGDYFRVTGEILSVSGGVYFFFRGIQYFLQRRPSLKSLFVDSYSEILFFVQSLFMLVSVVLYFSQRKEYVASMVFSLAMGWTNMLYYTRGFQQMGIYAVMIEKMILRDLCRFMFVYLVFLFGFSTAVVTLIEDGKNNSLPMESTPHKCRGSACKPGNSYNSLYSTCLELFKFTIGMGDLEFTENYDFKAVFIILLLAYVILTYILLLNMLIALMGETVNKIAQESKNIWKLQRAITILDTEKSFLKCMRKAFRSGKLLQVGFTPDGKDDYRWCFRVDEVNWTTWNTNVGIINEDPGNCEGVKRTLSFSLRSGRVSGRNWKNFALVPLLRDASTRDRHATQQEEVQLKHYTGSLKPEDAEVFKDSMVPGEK

In the case of `O=C(O)CN(CC(=O)O)c1ccccc1OCCOc1ccccc1N(CC(=O)O)CC(=O)O` [BAPTA], in experiment [1] (3 μM BAPTA, 0.1 μM capsaicin), the “effect on peak signal” value was “decreased the peak signal”. For the same compound, the signal over background was found to be 4 fold in experiment [2] (2 minutes after 0.5 uM capsaicin, with BAPTA) and 6 fold in experiment [3].

For the compound `COc1cc(CNC(=O)CCCC/C=C/C(C)C)ccc1O` [capsaicin], in experiment [1] (setting [5]), the “time to decay to 50%” value is “about 150 sec” and the “time to peak fluorescence response” value is recorded as “about 20 sec”. Also, in experiment [4] (50 nM capsaicin), the “time for luminescence signal to be largely complete” value is no more than 30 s and the “time to peak luminescence” value is reported as “about 10 sec”. Besides, the “time to peak response” value in experiment [4] (0.5 μM capsaicin) was “about 5 sec”.

As to `Oc1cc2c(cc1O)CN(C(=S)NCCc1ccc(Cl)cc1)CCC2` [capsazepine], the “block of capsaicin response” value in experiment [1] (20 μM capsazepine, 0.5 uM capsaicin) was “completely blocked”. For the same compound, the “block of luminescence signal” value in experiment [2] (higher concentrations of antagonist, 0.5 uM capsaicin, with and without BAPTA) was “completely blocked”.
